Measurements: patent publication US4518587A, “Dipeptides of L-5-hydroxytryptophan, processes for their preparation and drugs in which they are present” (S.A. Panmedica, priority 1983, dated 1985)
Where two headings read alike, the source gives them in different places. Square brackets hold non-standard residues; d marks the D form. Peptide text beside a SMILES is read from it. * marks the point of attachment. Trp(5-OH) = N[C@@H](Cc1c[nH]c2ccc(O)cc12)C(=O)O; OtBu = CC(C)(C)O*; tBu = CC(C)(C)*

Test system: brain levels of L-5-hydroxytryptophan (L-5-HTP), serotonin (5-HT) and 5-hydroxyindoleacetic acid (5-HIAA)
Experiment: Biochemical analysis of brain levels of L-5-HTP, 5-HT and 5-HIAA one hour after a single dose (technique of CURZON and GREEN)
Type: in vivo, rats
Conditions: for change in vivo at 50 mg/kg / change in vivo at 10 mg/kg / change in vivo at 25 mg/kg: Rattus norvegicus, 1 h; for change in vivo at 10 mg/kg: read-out: %, relative to the controls, of L-5-HTP at dose of 10 mg/kg
Protocol: Biochemical analysis of the brain levles of L-5-hydroxytryptophan (L-5-HTP), serotonin (5-HT) and its first metabolite, 5-hydroxyindoleacetic acid (5- HIAA), was carried out one hour after the administration of a single dose to adult rats by the technique of CURZON and GREEN. Three doses were studied, i.e. 10, 25 and 50 mg/kg, 10 animals being used per dose. Table I below indicates the percentage increases in 5-HTP, 5-HT and 5-HIAA relative to the levels found in the control animals: […]

[1] = brain level, adult rats, single dose 10 mg/kg, one hour after administration, percentage increase relative to control animals
[2] = brain level, adult rats, single dose 25 mg/kg, one hour after administration, percentage increase relative to control animals
[3] = brain level, adult rats, single dose 50 mg/kg, one hour after administration, percentage increase relative to control animals
[4] = read-out: %, relative to the controls, of 5-HT at dose of 50 mg/kg
[5] = read-out: %, relative to the controls, of L-5-HTP at dose of 25 mg/kg
[6] = brain level, adult rats, single dose 25 mg/kg, one hour after administration, percentage increase relative to control animals, read-out: %, relative to the controls, of 5-HIAA at dose of 25 mg/kg
[7] = brain level, adult rats, single dose 25 mg/kg, one hour after administration, percentage increase relative to control animals, read-out: %, relative to the controls, of L-5-HTP at dose of 25 mg/kg
[8] = brain level, adult rats, single dose 50 mg/kg, one hour after administration, percentage increase relative to control animals, read-out: %, relative to the controls, of 5-HIAA at dose of 50 mg/kg
[9] = brain level, adult rats, single dose 50 mg/kg, one hour after administration, percentage increase relative to control animals, read-out: %, relative to the controls, of 5-HT at dose of 50 mg/kg
[10] = read-out: %, relative to the controls, of 5-HIAA at dose of 25 mg/kg
[11] = read-out: %, relative to the controls, of 5-HIAA at dose of 50 mg/kg
[12] = brain level, adult rats, single dose 50 mg/kg, one hour after administration, percentage increase relative to control animals, read-out: %, relative to the controls, of L-5-HTP at dose of 50 mg/kg

| Molecule | %, relative to the controls, of 5-HIAA at dose of 10 mg/kg [1] | %, relative to the controls, of 5-HT at dose of 10 mg/kg [1] | %, relative to the controls, of L-5-HTP at dose of 10 mg/kg [1] | %, relative to the controls, of 5-HIAA at dose of 25 mg/kg [2] | %, relative to the controls, of 5-HT at dose of 25 mg/kg [2] | %, relative to the controls, of L-5-HTP at dose of 25 mg/kg [2] | %, relative to the controls, of 5-HIAA at dose of 50 mg/kg [3] | %, relative to the controls, of 5-HT at dose of 50 mg/kg [3] | %, relative to the controls, of L-5-HTP at dose of 50 mg/kg [3] | change in vivo at 10 mg/kg [1] | change in vivo at 25 mg/kg [7] | change in vivo at 50 mg/kg [9] | other results |
| --- | --- | --- | --- | --- | --- | --- | --- | --- | --- | --- | --- | --- | --- |
| 5-HYDROXY-L-TRYPTOPHAN-L-VALINE [Example 9] | 70% | 12% | 300% | 250% | 40% | 900% | 320% | 45% | 1700% |  |  |  |  |
| 5-Hydroxy-L-tryptophyl-5-hydroxy-L-tryptophan hemihydrate [Example 13] |  |  |  |  | 5% | 50% | 10% | 5% | 50% |  |  |  |  |
| 5-Hydroxy-L-tryptophyl-γ-aminobutyric acid [Example 20] | 40% | 5% | 60% | 100% | 5% | 200% | 150% | 15% | 400% |  |  |  |  |
| N[C@@H](Cc1c[nH]c2ccc(O)cc12)C(=O)N[C@@H](CC(=O)O)C(=O)O.O.O.O [Example 2, 5-Hydroxy-L-tryptophyl-L-aspartic acid trihydrate] (H-[Trp(5-OH)]-Asp-OH) |  | 5% |  |  | 5% |  |  |  |  |  |  |  | change in vivo at 50 mg/kg [4]: 10%; change in vivo at 10 mg/kg: 200%; change in vivo at 25 mg/kg [5]: 600%; change in vivo at 50 mg/kg (read-out: %, relative to the controls, of L-5-HTP at dose of 50 mg/kg): 1000% |
| CCOC(=O)CC[C@H](NC(=O)[C@@H](N)Cc1c[nH]c2ccc(O)cc12)C(=O)OCC.Cl [Example 3, Diethyl 5-hydroxy-L-tryptophyl-L-glutamate hydrochloride] (H-[Trp(5-OH)]-Glu(OEt)-OEt) | 50% | 10% |  |  |  |  |  |  |  | 100% | 400% | 200% | change in vivo at 25 mg/kg [6]: 150%; change in vivo at 50 mg/kg [8]: 200% |
| N[C@@H](Cc1c[nH]c2ccc(O)cc12)C(=O)N[C@@H](CCC(=O)O)C(=O)O [Example 4, 5-Hydroxy-L-tryptophyl-L-glutamic acid] (H-[Trp(5-OH)]-Glu-OH) |  | 5% |  |  | 10% |  |  |  |  | 200% | 550% | 60% |  |
| COC(=O)[C@H](Cc1ccc(O)cc1)NC(=O)[C@@H](N)Cc1c[nH]c2ccc(O)cc12.Cl [Example 5, Methyl ester of 5-hydroxy-L-tryptophyl-L-tyrosine hydrochloride] (H-[Trp(5-OH)]-Tyr-OMe) | 55% | 12% | 200% | 160% | 10% | 450% | 170% | 40% | 1200% |  |  |  |  |
| COC(=O)[C@H](Cc1ccc(O)cc1)NC(=O)[C@H](Cc1c[nH]c2ccc(O)cc12)NC(C)=O [Example 6, Methyl ester of N-acetyl-5-hydroxy-L-tryptophyl-L-tyrosine] (Ac-[Trp(5-OH)]-Tyr-OMe) |  |  |  |  | 5% |  |  | 5% |  |  |  |  |  |
| COC(=O)[C@H](Cc1c[nH]c2ccc(O)cc12)NC(=O)[C@H](Cc1c[nH]c2ccc(O)cc12)NC(C)=O [Example 7, METHYL ESTER OF N-ACETYL-5-HYDROXY-L-TRYPTOPHYL-5-HYDROXY-L-TRYPTOPHAN] (Ac-[Trp(5-OH)]-[Trp(5-OH)]-OMe) | 10% |  | 10% | 20% |  |  | 20% |  | 30% |  |  |  |  |
| C[C@H](NC(=O)[C@@H](N)Cc1c[nH]c2ccc(O)cc12)C(=O)O.O [Example 8, 5-HYDROXY-L-TRYPTOPHYL-L-ALANINE HYDRATE] (H-[Trp(5-OH)]-Ala-OH) | 75% |  |  |  | 5% |  |  |  |  |  |  |  | change in vivo at 25 mg/kg [10]: 140%; change in vivo at 50 mg/kg [11]: 400%; change in vivo at 10 mg/kg: 200% |
| CC(C)C[C@H](NC(=O)[C@@H](N)Cc1c[nH]c2ccc(O)cc12)C(=O)O [Example 10, 5-HYDROXY-L-TRYPTOPHYL-L-LEUCINE] (H-[Trp(5-OH)]-Leu-OH) | 55% |  |  |  | 12% |  |  |  |  | 200% | 600% | 45% | change in vivo at 25 mg/kg [6]: 100%; change in vivo at 50 mg/kg [8]: 350% |
| N[C@@H](Cc1c[nH]c2ccc(O)cc12)C(=O)N1CCC[C@H]1C(=O)O [Example 11, 5-HYDROXY-L-TRYPTOPHYL-L-PROLINE] (H-[Trp(5-OH)]-Pro-OH) |  | 10% |  |  |  |  |  |  |  | 200% | 700% | 20% | change in vivo at 25 mg/kg [6]: 150%; change in vivo at 50 mg/kg [8]: 300% |
| N[C@@H](Cc1c[nH]c2ccc(O)cc12)C(=O)N[C@@H](Cc1ccccc1)C(=O)O [Example 12, 5-HYDROXY-L-TRYPTOPHYL-L-PHENYLALANINE] (H-[Trp(5-OH)]-Phe-OH) |  |  |  |  |  |  |  |  |  |  |  |  | change in vivo at 25 mg/kg [10]: 140%; change in vivo at 50 mg/kg [11]: 180%; change in vivo at 50 mg/kg [4]: 25%; change in vivo at 10 mg/kg: 170%; change in vivo at 25 mg/kg [5]: 500% |
| N[C@@H](Cc1c[nH]c2ccc(O)cc12)C(=O)N[C@@H](Cc1c[nH]c2ccccc12)C(=O)O [Example 14, 5-Hydroxy-L-tryptophyl-L-tryptophan] (H-[Trp(5-OH)]-Trp-OH) |  |  |  |  | 12% |  |  |  |  | 50% | 100% | 10% | change in vivo at 50 mg/kg [12]: 200% |
| CC(C)(C)OC[C@H](NC(=O)[C@@H](N)Cc1c[nH]c2ccc(O)cc12)C(=O)OC(C)(C)C [Example 15, Tert.-butyl ester of L-5-hydroxytryptophyl-O-tert.-butyl-L-serine] (H-[Trp(5-OH)]-Ser(tBu)-OtBu) |  |  | 200% | 60% |  | 400% | 150% |  | 900% |  |  |  |  |
| N[C@@H](Cc1c[nH]c2ccc(O)cc12)C(=O)N[C@@H](CO)C(=O)O [Example 16, L-5-HYDROXYTRYPTOPHYL-L-SERINE] (H-[Trp(5-OH)]-Ser-OH) | 10% |  |  |  |  |  |  |  |  | 170% |  | 15% | change in vivo at 25 mg/kg [6]: 30%; change in vivo at 50 mg/kg [8]: 150%; change in vivo at 50 mg/kg [12]: 900% |
